Data reported in PubChem BioAssay AID248 (DTP/NCI, 2004).
Values joined by “and” are separate entries in the source; they are usually repeats but may differ in a detail not shown here. Equal values may be shown once. Inconclusive results and toxic doses are left out. Square brackets hold non-standard residues; d marks the D form. Peptide text beside a SMILES is read from it. * marks the point of attachment. ξ: configuration not given here. Cbz = O=C(OCc1ccccc1)*; ξI = CCC(C)C(N)C(=O)O

Test system: L1210 leukemia ip in BDF1 mice, survival T/C
Experiment: NCI In Vivo Anticancer Drug Screen. Data for tumor model L1210 Leukemia (intraperitoneal) in B6D2F1 (BDF1) mice
Settings: endpoint: mean survival time, higher = longer survival
Procedure, shortened: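 Ratio derived from survival: compound-dosed mice over vehicle-dosed mice, all bearing a transplantable tumor.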

[1] = dose: 100.0 mg/kg/injection, schedule: Q01DX001 (ip), vehicle: carboxymethylcellulose (CMC)
[2] = dose: 200.0 mg/kg/injection, schedule: Q01DX001 (ip), vehicle: carboxymethylcellulose (CMC)
[3] = dose: 400.0 mg/kg/injection, schedule: Q01DX001 (ip), vehicle: carboxymethylcellulose (CMC)
[4] = dose: 100.0 mg/kg/injection, schedule: Q04DX003 (ip), vehicle: Klucel (hydroxypropylcellulose) (HPC)
[5] = dose: 200.0 mg/kg/injection, schedule: Q04DX003 (ip), vehicle: Klucel (hydroxypropylcellulose) (HPC)
[6] = dose: 100.0 mg/kg/injection, schedule: Q01DX009 (ip), vehicle: Klucel (hydroxypropylcellulose) (HPC)
[7] = dose: 200.0 mg/kg/injection, schedule: Q01DX009 (ip), vehicle: Klucel (hydroxypropylcellulose) (HPC)
[8] = dose: 400.0 mg/kg/injection, schedule: Q01DX009 (ip), vehicle: Klucel (hydroxypropylcellulose) (HPC)
[9] = dose: 400.0 mg/kg/injection, schedule: Q04DX003 (ip), vehicle: Klucel (hydroxypropylcellulose) (HPC)
[10] = dose: 100.0 mg/kg/injection, schedule: Q01DX005 (ip), vehicle: saline
[11] = dose: 200.0 mg/kg/injection, schedule: Q01DX005 (ip), vehicle: saline
[12] = dose: 100.0 mg/kg/injection, schedule: Q01DX001 (ip), vehicle: saline
[13] = dose: 200.0 mg/kg/injection, schedule: Q01DX001 (ip), vehicle: saline
[14] = dose: 400.0 mg/kg/injection, schedule: Q01DX001 (ip), vehicle: saline
[15] = dose: 100.0 mg/kg/injection, schedule: Q01DX009 (ip), vehicle: saline with Tween-80
[16] = dose: 100.0 mg/kg/injection, schedule: Q01DX001 (ip), vehicle: Klucel (hydroxypropylcellulose) (HPC)
[17] = dose: 200.0 mg/kg/injection, schedule: Q01DX001 (ip), vehicle: Klucel (hydroxypropylcellulose) (HPC)
[18] = dose: 400.0 mg/kg/injection, schedule: Q01DX001 (ip), vehicle: Klucel (hydroxypropylcellulose) (HPC)
[19] = dose: 25.0 mg/kg/injection, schedule: Q01DX009 (ip), vehicle: saline
[20] = dose: 50.0 mg/kg/injection, schedule: Q01DX009 (ip), vehicle: saline
[21] = dose: 100.0 mg/kg/injection, schedule: Q01DX009 (ip), vehicle: saline

CC1(C)N=C(N)N=C(N)N1c1cccc(Cl)c1
T/C (dose: 1.15 mg/kg/injection, schedule: Q01DX Z (ip), vehicle: carboxymethylcellulose (CMC)): 98 % of control | T/C (dose: 2.3 mg/kg/injection, schedule: Q01DX Z (ip), vehicle: carboxymethylcellulose (CMC)): 97 % of control | T/C (dose: 2.5 mg/kg/injection, schedule: Q01DX015 (ip), vehicle: saline): 111 % of control | T/C (dose: 4.6 mg/kg/injection, schedule: Q01DX Z (ip), vehicle: carboxymethylcellulose (CMC)): 117 % of control | T/C (dose: 5.0 mg/kg/injection, schedule: Q01DX015 (ip), vehicle: saline): 114 % of control | T/C (dose: 9.2 mg/kg/injection, schedule: Q01DX Z (ip), vehicle: carboxymethylcellulose (CMC)): 108 % of control | T/C (dose: 10.0 mg/kg/injection, schedule: Q01DX015 (ip), vehicle: saline): 119 % of control | T/C (dose: 40.0 mg/kg/injection, schedule: Q01DX015 (ip), vehicle: saline): 114 % of control | T/C (dose: 75.0 mg/kg/injection, schedule: Q01DX001 (ip), vehicle: acetone): 111 % of control

[O-][n+]1ccccc1Br
T/C (dose: 50.0 mg/kg/injection, schedule: Q01DX009 (ip), vehicle: water): 104 % of control | T/C (dose: 100.0 mg/kg/injection, schedule: Q01DX009 (ip), vehicle: water): 98 % of control | T/C (dose: 100.0 mg/kg/injection, schedule: Q04DX003 (ip), vehicle: water): 95 % of control | T/C (dose: 150.0 mg/kg/injection, schedule: Q01DX009 (ip), vehicle: water): 95 % of control | T/C (dose: 200.0 mg/kg/injection, schedule: Q04DX003 (ip), vehicle: water): 115 % of control

NC(=O)C1C(=O)c2cccc3c2C1CCCC3 (stereo not drawn)
T/C [1]: 90 % of control | T/C [2]: 95 % of control | T/C [3]: 92 % of control

[N-]=[N+]=C1C(C(=O)c2ccccc2)=NN=C1c1ccccc1
T/C (dose: 50.0 mg/kg/injection, schedule: Q04DX003 (ip), vehicle: Klucel (hydroxypropylcellulose) (HPC)): 97 % of control | T/C [4]: 104 % of control | T/C [5]: 108 % of control

C(#CSCc1ccccc1)SCc1ccccc1
T/C [6]: 94 % of control | T/C [4]: 104 % of control | T/C [7]: 96 % of control | T/C [5]: 102 % of control | T/C [8]: 97 % of control | T/C [9]: 104 % of control

O=C(Nc1cc(C(F)(F)F)ccc1Cl)c1ccc(Cl)cc1
T/C [6]: 110 % of control | T/C (dose: 100.0 mg/kg/injection, schedule: Q04DX003 (ip), vehicle: saline): 103 % of control | T/C [7]: 94 % of control | T/C (dose: 200.0 mg/kg/injection, schedule: Q04DX003 (ip), vehicle: saline): 114 % of control | T/C [8]: 94 % of control | T/C (dose: 400.0 mg/kg/injection, schedule: Q04DX003 (ip), vehicle: saline): 106 % of control

CC(=O)OC1CC(n2cc(C)c(=O)[nH]c2=O)OC1COC(c1ccccc1)(c1ccccc1)c1ccccc1 (stereo not drawn)
T/C [10]: 109 % of control | T/C [11]: 98 % of control

CC1(C)OC(=O)CC1c1ccc(Cl)cc1 (stereo not drawn)
T/C [12]: 98 % of control | T/C [13]: 93 % of control | T/C [14]: 106 % of control

O=C(CNC(=O)Nc1ccc(F)cc1)NNC(=O)Nc1ccc(Cl)c([N+](=O)[O-])c1
T/C (dose: 25.0 mg/kg/injection, schedule: Q01DX009 (ip), vehicle: saline with Tween-80): 94 % of control | T/C (dose: 50.0 mg/kg/injection, schedule: Q01DX009 (ip), vehicle: saline with Tween-80): 93 % of control | T/C [15]: 102 % of control

CC(=O)Nc1cc(CN2CCCCC2)c(O)c2ncccc12
T/C (dose: 75.0 mg/kg/injection, schedule: Q01DX001 (ip), vehicle: other): 120 % of control | T/C (dose: 150.0 mg/kg/injection, schedule: Q01DX001 (ip), vehicle: other): 105 % of control | T/C (dose: 300.0 mg/kg/injection, schedule: Q01DX001 (ip), vehicle: other): 107 % of control

Nc1cc2c(cc1I)-c1ccc(Br)cc1C2
T/C [1]: 102 % of control | T/C [2]: 107 % of control | T/C [3]: 98 % of control

Cc1ccc(S(=O)(=O)NCc2cccc([N+](=O)[O-])c2)cc1
T/C [16]: 102 % of control | T/C [17]: 96 % of control | T/C [18]: 96 % of control

Nc1nc(SCc2ccccc2)c(N)c(=S)[nH]1
T/C [16]: 95 % of control | T/C [17]: 90 % of control | T/C [18]: 93 % of control

N#Cc1ncn(C2OC(CO)C(O)C2O)c1N (stereo not drawn)
T/C [10]: 103 % of control | T/C [11]: 96 % of control

OC(CN1CCCC1)c1cc2cc(Br)ccc2s1 (stereo not drawn)
T/C [12]: 107 % of control

O=[N+]([O-])c1ccc(C=Nc2ccccc2-c2ccccc2)s1
T/C [4]: 98 % of control | T/C [5]: 98 % of control | T/C [9]: 95 % of control

CCCCN1CC1(C)C (stereo not drawn)
T/C [19]: 105 % of control | T/C [20]: 105 % of control | T/C [12]: 98 % of control | T/C [21]: 106 % of control

O=[N+]([O-])c1ccc(N(CCO)CCO)cc1
T/C (dose: 50.0 mg/kg/injection, schedule: Q01DX001 (ip), vehicle: saline): 96 % of control | T/C [12]: 100 % of control | T/C [13]: 100 % of control | T/C [14]: 96 % of control

COC(=O)C1(C(=O)OC)C2CCCCC21 (stereo not drawn)
T/C [16]: 90 % of control | T/C [4]: 96 % of control | T/C [17]: 103 % of control | T/C [5]: 104 % of control | T/C [18]: 98 % of control | T/C [9]: 98 % of control

CN=C(N)c1ccc(N=C(N)c2ccc(-c3ccc(C(N)=Nc4ccc(C(N)=NC)cc4)cc3)cc2)cc1
T/C (dose: 2.25 mg/kg/injection, schedule: Q01DX Z (ip), vehicle: carboxymethylcellulose (CMC)): 109 % of control | T/C (dose: 4.5 mg/kg/injection, schedule: Q01DX Z (ip), vehicle: carboxymethylcellulose (CMC)): 115 % of control | T/C (dose: 18.0 mg/kg/injection, schedule: Q01DX Z (ip), vehicle: carboxymethylcellulose (CMC)): 184 % of control | T/C (dose: 50.0 mg/kg/injection, schedule: Q01DX Z (oral), vehicle: water): 101 % of control | T/C (dose: 100.0 mg/kg/injection, schedule: Q01DX Z (oral), vehicle: water): 112 % of control | T/C (dose: 200.0 mg/kg/injection, schedule: Q01DX Z (oral), vehicle: water): 107 % of control

Cc1ccc(Cl)cc1NS(=O)(=O)c1cccc([N+](=O)[O-])c1
T/C [15]: 94 % of control | T/C (dose: 200.0 mg/kg/injection, schedule: Q01DX009 (ip), vehicle: saline with Tween-80): 90 % of control

S=C1NC(c2cccc(Cl)c2)N2C(=S)NC(c3cccc(Cl)c3)N12 (stereo not drawn)
T/C (dose: 25.0 mg/kg/injection, schedule: Q01DX009 (ip), vehicle: gum acacia): 95 % of control | T/C (dose: 50.0 mg/kg/injection, schedule: Q01DX009 (ip), vehicle: gum acacia): 95 % of control | T/C (dose: 100.0 mg/kg/injection, schedule: Q01DX009 (ip), vehicle: gum acacia): 101 % of control | T/C (dose: 100.0 mg/kg/injection, schedule: Q04DX003 (ip), vehicle: gum acacia): 101 % of control | T/C (dose: 200.0 mg/kg/injection, schedule: Q01DX009 (ip), vehicle: gum acacia): 88 % of control | T/C (dose: 200.0 mg/kg/injection, schedule: Q04DX003 (ip), vehicle: gum acacia): 93 % of control | T/C (dose: 400.0 mg/kg/injection, schedule: Q01DX009 (ip), vehicle: gum acacia): 87 % of control | T/C (dose: 400.0 mg/kg/injection, schedule: Q04DX003 (ip), vehicle: gum acacia): 97 % of control

COC1C2CCC1[N+](C)(C)CC2 (stereo not drawn)
T/C [19]: 101 % of control | T/C [20]: 105 % of control | T/C [21]: 107 % of control and 110 % of control

O=C(/C(=C1\SS/C(=C(/C(=O)c2ccccc2)c2ccccc2)S1)c1ccccc1)c1ccccc1
T/C [16]: 114 % of control | T/C [4]: 100 % of control | T/C [17]: 108 % of control | T/C [5]: 97 % of control | T/C [18]: 104 % of control | T/C [9]: 94 % of control

COc1cc(Cl)ccc1NC(=O)Oc1ccc(NC(C)=O)cc1
T/C [21]: 110 % of control | T/C (dose: 200.0 mg/kg/injection, schedule: Q01DX009 (ip), vehicle: saline): 92 % of control | T/C (dose: 400.0 mg/kg/injection, schedule: Q01DX009 (ip), vehicle: saline): 103 % of control

CCC(C)C(NC(=O)CNC(=O)CNC(=O)OCc1ccccc1)C(=O)OC (stereo not drawn) (Cbz-Gly-Gly-[ξI]-OMe)
T/C [4]: 98 % of control | T/C [5]: 96 % of control | T/C [9]: 98 % of control
